# Measurements published in article PMC7156458, “Synthetic biology based construction of biological activity-related library of fungal decalin-containing diterpenoid pyrones” (Nature Communications, 2020).
# Target: Aβ42 (Homo sapiens, UniProt P05067)
# Experiment: Th-T (thioflavin-T) assay of Aβ42 aggregation
# Assay type: biochemical
# Settings: for Th-T fluorescence, mean of three wells: Aβ42 aggregation time course
# Sequence of Aβ42 (P05067 672-713): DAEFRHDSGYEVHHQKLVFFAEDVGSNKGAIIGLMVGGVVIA
smiles,measurement,setting,value
C=C1CCC2C(C)(CCC=C(C)C)C(O)CCC2(C)C1Cc1c(OC)oc(CO)c(C(=O)OC)c1=O (centres unmarked) [Compound 13],first Th-T assay result,"Aβ42 (10 μM) ± DPPs (20 μM), room temperature",clearly delayed nuclei formation of Aβ42
same,"Th-T fluorescence, mean of three wells",reading M117,1.0387
same,"Th-T fluorescence, mean of three wells",reading M118,1.037
same,"Th-T fluorescence, mean of three wells",reading M119,1.04
same,"Th-T fluorescence, mean of three wells",reading M120,1.034
same,"Th-T fluorescence, mean of three wells",reading M121,1.036
same,"Th-T fluorescence, mean of three wells",reading M122,1.039
same,"Th-T fluorescence, mean of three wells",reading M123,1.034
same,"Th-T fluorescence, mean of three wells",reading M124,1.036
same,"Th-T fluorescence, mean of three wells",reading M125,1.037
same,"Th-T fluorescence, mean of three wells",reading M126,1.037
same,"Th-T fluorescence, mean of three wells",reading M127,1.0394
same,"Th-T fluorescence, mean of three wells",reading M128,1.038
same,"Th-T fluorescence, mean of three wells",reading M129,1.038
same,"Th-T fluorescence, mean of three wells",reading M130,1.033
same,nucleation phase of Aβ42 delayed until,Th-T fluorescence of Aβ42 alone began to increase after 4 h,6 h
same,"Th-T fluorescence, mean of three wells (Fig. 7a)","column suffix _10, measurement M19",0.2324
same,"Th-T fluorescence, mean of three wells (Fig. 7a)","column suffix _10, measurement M20",0.2323
same,"Th-T fluorescence, mean of three wells (Fig. 7a)","column suffix _10, measurement M21",0.2394
same,"Th-T fluorescence, mean of three wells (Fig. 7a)","column suffix _10, measurement M22",0.2441
same,"Th-T fluorescence, mean of three wells (Fig. 7a)","column suffix _10, measurement M23",0.249
same,"Th-T fluorescence, mean of three wells (Fig. 7a)","column suffix _10, measurement M24",0.2631
same,"Th-T fluorescence, mean of three wells (Fig. 7a)","column suffix _10, measurement M25",0.2779
same,"Th-T fluorescence, mean of three wells (Fig. 7a)","column suffix _10, measurement M26",0.3045
same,"Th-T fluorescence, mean of three wells (Fig. 7a)","column suffix _10, measurement M27",0.3354
same,"Th-T fluorescence, mean of three wells (Fig. 7a)","column suffix _10, measurement M28",0.3683
same,"Th-T fluorescence, mean of three wells (Fig. 7a)","column suffix _10, measurement M29",0.4093
same,"Th-T fluorescence, mean of three wells (Fig. 7a)","column suffix _10, measurement M30",0.4628
same,"Th-T assay signal, mean of three wells (Fig. 7a)","column suffix _10, reading M1",0.2437
same,"Th-T assay signal, mean of three wells (Fig. 7a)","column suffix _10, reading M2",0.2496
same,"Th-T assay signal, mean of three wells (Fig. 7a)","column suffix _10, reading M3",0.25
same,"Th-T assay signal, mean of three wells (Fig. 7a)","column suffix _10, reading M4",0.2515
same,"Th-T assay signal, mean of three wells (Fig. 7a)","column suffix _10, reading M5",0.2448
same,"Th-T assay signal, mean of three wells (Fig. 7a)","column suffix _10, reading M6",0.2438
same,"Th-T assay signal, mean of three wells (Fig. 7a)","column suffix _10, reading M7",0.2403
same,"Th-T assay signal, mean of three wells (Fig. 7a)","column suffix _10, reading M8",0.2367
same,"Th-T assay signal, mean of three wells (Fig. 7a)","column suffix _10, reading M9",0.231
same,"Th-T assay signal, mean of three wells (Fig. 7a)","column suffix _10, reading M10",0.233
same,"Th-T assay signal, mean of three wells (Fig. 7a)","column suffix _10, reading M11",0.2291
same,"Th-T assay signal, mean of three wells (Fig. 7a)","column suffix _10, reading M12",0.2292
same,"Th-T assay signal, mean of three wells (Fig. 7a)","column suffix _10, reading M13",0.2301
same,"Th-T assay signal, mean of three wells (Fig. 7a)","column suffix _10, reading M14",0.2289
same,"Th-T assay signal, mean of three wells (Fig. 7a)","column suffix _10, reading M15",0.2274
same,"Th-T assay signal, mean of three wells (Fig. 7a)","column suffix _10, reading M16",0.2305
same,"Th-T assay signal, mean of three wells (Fig. 7a)","column suffix _10, reading M17",0.2352
same,"Th-T assay signal, mean of three wells (Fig. 7a)","column suffix _10, reading M18",0.231
same,"Fig. 7a Th-T reading, mean of three wells","column suffix _10, reading M85",1.544
same,"Fig. 7a Th-T reading, mean of three wells","column suffix _10, reading M86",1.5365
same,"Fig. 7a Th-T reading, mean of three wells","column suffix _10, reading M87",1.543
same,"Fig. 7a Th-T reading, mean of three wells","column suffix _10, reading M88",1.544
same,"Fig. 7a Th-T reading, mean of three wells","column suffix _10, reading M89",1.563
same,"Fig. 7a Th-T reading, mean of three wells","column suffix _10, reading M90",1.554
same,"Fig. 7a Th-T reading, mean of three wells","column suffix _10, reading M91",1.5515
same,"Fig. 7a Th-T reading, mean of three wells","column suffix _10, reading M92",1.553
same,"Fig. 7a Th-T reading, mean of three wells","column suffix _10, reading M93",1.554
same,"Fig. 7a Th-T reading, mean of three wells","column suffix _10, reading M94",1.561
same,"Fig. 7a Th-T reading, mean of three wells","column suffix _10, reading M95",1.563
same,"Fig. 7a Th-T reading, mean of three wells","column suffix _10, reading M96",1.547
same,"Fig. 7a Th-T reading, mean of three wells","column suffix _10, reading M97",1.551
same,"Fig. 7a Th-T reading, mean of three wells","column suffix _10, reading M98",1.554
same,"Fig. 7a Th-T reading, mean of three wells","column suffix _10, reading M99",1.551
same,"Fig. 7a Th-T reading, mean of three wells","column suffix _10, reading M100",1.555
same,"Fig. 7a Th-T reading, mean of three wells","column suffix _10, reading M101",1.545
same,"Fig. 7a Th-T reading, mean of three wells","column suffix _10, reading M102",1.552
same,"Fig. 7a Th-T reading, mean of three wells","column suffix _10, reading M103",1.542
same,"Fig. 7a Th-T reading, mean of three wells","column suffix _10, reading M104",1.5457
same,"Fig. 7a Th-T reading, mean of three wells","column suffix _10, reading M105",1.553
same,"Fig. 7a Th-T reading, mean of three wells","column suffix _10, reading M106",1.551
same,"Th-T fluorescence, mean of three wells (Fig. 7a)","column suffix _20, measurement M19",0.1811
same,"Th-T fluorescence, mean of three wells (Fig. 7a)","column suffix _20, measurement M20",0.1836
same,"Th-T fluorescence, mean of three wells (Fig. 7a)","column suffix _20, measurement M21",0.1846
same,"Th-T fluorescence, mean of three wells (Fig. 7a)","column suffix _20, measurement M22",0.1853
same,"Th-T fluorescence, mean of three wells (Fig. 7a)","column suffix _20, measurement M23",0.1827
same,"Th-T fluorescence, mean of three wells (Fig. 7a)","column suffix _20, measurement M24",0.1835
same,"Th-T fluorescence, mean of three wells (Fig. 7a)","column suffix _20, measurement M25",0.1855
same,"Th-T fluorescence, mean of three wells (Fig. 7a)","column suffix _20, measurement M26",0.1899
same,"Th-T fluorescence, mean of three wells (Fig. 7a)","column suffix _20, measurement M27",0.1923
same,"Th-T fluorescence, mean of three wells (Fig. 7a)","column suffix _20, measurement M28",0.1912
same,"Th-T fluorescence, mean of three wells (Fig. 7a)","column suffix _20, measurement M29",0.1931
same,"Th-T assay signal, mean of three wells (Fig. 7a)","column suffix _20, reading M1",0.2486
same,"Th-T assay signal, mean of three wells (Fig. 7a)","column suffix _20, reading M2",0.2414
same,"Th-T assay signal, mean of three wells (Fig. 7a)","column suffix _20, reading M3",0.2279
same,"Th-T assay signal, mean of three wells (Fig. 7a)","column suffix _20, reading M4",0.2173
same,"Th-T assay signal, mean of three wells (Fig. 7a)","column suffix _20, reading M5",0.206
same,"Th-T assay signal, mean of three wells (Fig. 7a)","column suffix _20, reading M6",0.2044
same,"Th-T assay signal, mean of three wells (Fig. 7a)","column suffix _20, reading M7",0.2009
same,"Th-T assay signal, mean of three wells (Fig. 7a)","column suffix _20, reading M8",0.1963
same,"Th-T assay signal, mean of three wells (Fig. 7a)","column suffix _20, reading M9",0.1897
same,"Th-T assay signal, mean of three wells (Fig. 7a)","column suffix _20, reading M10",0.1909
same,"Th-T assay signal, mean of three wells (Fig. 7a)","column suffix _20, reading M11",0.1894
same,"Th-T assay signal, mean of three wells (Fig. 7a)","column suffix _20, reading M12",0.1902
same,"Th-T assay signal, mean of three wells (Fig. 7a)","column suffix _20, reading M13",0.1854
same,"Th-T assay signal, mean of three wells (Fig. 7a)","column suffix _20, reading M14",0.184
same,"Th-T assay signal, mean of three wells (Fig. 7a)","column suffix _20, reading M15",0.1861
same,"Th-T assay signal, mean of three wells (Fig. 7a)","column suffix _20, reading M16",0.1835
same,"Th-T assay signal, mean of three wells (Fig. 7a)","column suffix _20, reading M17",0.1852
same,"Th-T assay signal, mean of three wells (Fig. 7a)","column suffix _20, reading M18",0.1827
same,"Fig. 7a Th-T reading, mean of three wells","column suffix _20, reading M85",1.042
same,"Fig. 7a Th-T reading, mean of three wells","column suffix _20, reading M86",1.037
same,"Fig. 7a Th-T reading, mean of three wells","column suffix _20, reading M87",1.045
same,"Fig. 7a Th-T reading, mean of three wells","column suffix _20, reading M88",1.0511
same,"Fig. 7a Th-T reading, mean of three wells","column suffix _20, reading M89",1.059
same,"Fig. 7a Th-T reading, mean of three wells","column suffix _20, reading M90",1.054
same,"Fig. 7a Th-T reading, mean of three wells","column suffix _20, reading M91",1.0453
same,"Fig. 7a Th-T reading, mean of three wells","column suffix _20, reading M92",1.043
same,"Fig. 7a Th-T reading, mean of three wells","column suffix _20, reading M93",1.047
same,"Fig. 7a Th-T reading, mean of three wells","column suffix _20, reading M94",1.054
same,"Fig. 7a Th-T reading, mean of three wells","column suffix _20, reading M95",1.054
same,"Fig. 7a Th-T reading, mean of three wells","column suffix _20, reading M96",1.04
same,"Fig. 7a Th-T reading, mean of three wells","column suffix _20, reading M97",1.041
same,"Fig. 7a Th-T reading, mean of three wells","column suffix _20, reading M98",1.046
same,"Fig. 7a Th-T reading, mean of three wells","column suffix _20, reading M99",1.051
same,"Fig. 7a Th-T reading, mean of three wells","column suffix _20, reading M100",1.05
